The source of these data is article PMC10717410, “TMC4 is a novel chloride channel involved in high-concentration salt taste sensation” (The Journal of Physiological Sciences : JPS, 2021).

The structures appear in SMILES notation. Counter-ions that a name gives are not always drawn.

What all share (assay type): cell-based
The target in experiment [1] is T1, mouse TMC4 (mTMC4) (Mus musculus, UniProt Q7TQ65).
T1 construct: coding region from circumvallate papillae cDNA in pIRES2-AcGFP1 with IRES and GFP removed; transiently expressed in HEK293T with separate EGFP plasmid
T1 sequence (Q7TQ65 1-694): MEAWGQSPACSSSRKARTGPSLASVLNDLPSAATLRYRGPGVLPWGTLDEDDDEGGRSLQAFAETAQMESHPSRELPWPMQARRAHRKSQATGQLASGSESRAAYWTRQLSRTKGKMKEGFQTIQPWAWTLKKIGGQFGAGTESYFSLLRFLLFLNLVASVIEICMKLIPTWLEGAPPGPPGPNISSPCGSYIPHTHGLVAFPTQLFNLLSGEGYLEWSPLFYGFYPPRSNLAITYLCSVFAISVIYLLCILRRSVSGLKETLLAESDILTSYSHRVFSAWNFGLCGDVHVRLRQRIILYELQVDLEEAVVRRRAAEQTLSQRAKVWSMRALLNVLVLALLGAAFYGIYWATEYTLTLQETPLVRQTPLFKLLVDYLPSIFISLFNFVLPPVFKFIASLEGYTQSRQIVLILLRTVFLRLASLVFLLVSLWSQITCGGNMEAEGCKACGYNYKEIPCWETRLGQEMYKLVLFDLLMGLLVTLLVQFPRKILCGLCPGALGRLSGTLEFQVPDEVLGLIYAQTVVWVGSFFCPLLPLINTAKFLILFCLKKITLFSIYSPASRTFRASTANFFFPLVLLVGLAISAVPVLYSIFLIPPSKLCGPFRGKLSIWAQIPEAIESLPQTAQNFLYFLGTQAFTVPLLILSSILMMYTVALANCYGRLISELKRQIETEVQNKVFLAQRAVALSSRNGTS
Kind of experiment: whole-cell patch clamp, step pulses, transfected HEK293T. The note with it: NMDG-Cl pipette, pH 7.4 bath, pH 7.2 pipette, about 25 °C, channel blocker. (In general: The patch-clamp technique gives a direct electrical read-out from membranes.)

The target of experiment [2] is T2, human TMC4 (hTMC4) (Homo sapiens, UniProt Q7Z404).
T2 construct: coding region of purchased cDNA (Dharmacon) in pIRES2-AcGFP1 with IRES and GFP removed; transiently expressed in HEK293T
T2 sequence (Q7Z404 1-712): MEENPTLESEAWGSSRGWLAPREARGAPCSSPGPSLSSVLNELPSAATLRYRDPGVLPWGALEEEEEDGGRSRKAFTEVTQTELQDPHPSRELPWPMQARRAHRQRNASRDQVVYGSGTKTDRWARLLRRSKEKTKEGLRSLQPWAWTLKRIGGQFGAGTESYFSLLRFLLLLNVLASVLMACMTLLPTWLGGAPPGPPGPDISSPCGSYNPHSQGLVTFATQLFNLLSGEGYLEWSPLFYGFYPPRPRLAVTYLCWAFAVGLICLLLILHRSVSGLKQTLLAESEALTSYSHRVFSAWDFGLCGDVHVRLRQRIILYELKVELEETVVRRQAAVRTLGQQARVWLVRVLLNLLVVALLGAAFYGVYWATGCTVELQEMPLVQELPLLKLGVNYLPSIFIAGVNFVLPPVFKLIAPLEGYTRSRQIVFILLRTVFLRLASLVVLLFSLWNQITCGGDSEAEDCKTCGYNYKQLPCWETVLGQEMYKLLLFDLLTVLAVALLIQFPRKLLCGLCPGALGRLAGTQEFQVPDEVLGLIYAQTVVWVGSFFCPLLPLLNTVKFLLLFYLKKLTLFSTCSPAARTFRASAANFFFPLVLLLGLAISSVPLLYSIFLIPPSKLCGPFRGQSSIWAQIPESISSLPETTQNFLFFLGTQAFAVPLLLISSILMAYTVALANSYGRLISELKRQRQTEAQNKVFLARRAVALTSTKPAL
The description is as above. The following applies: pH 7.4 bath, pH 7.2 pipette, about 25 °C; channel blocker.

The target in experiment [3] is T1, mouse TMC4 (mTMC4). Kind of experiment: whole-cell patch clamp, bath chloride fully replaced by gluconate. The following applies: permeating anion; NMDG-Cl pipette; pH 7.4 bath, about 25 °C.
The target of experiment [4] is T1, mouse TMC4 (mTMC4). Kind of experiment: whole-cell patch clamp, transfected HEK293T. The following applies: pH 7.4 bath, pH 7.2 pipette, about 25 °C.

As to `O=C(O)c1cc([N+](=O)[O-])ccc1NCCCc1ccccc1` [NPPB, 5-nitro-2-(3-phenylpropylamino) benzoic acid], the “Iblocker/Icontrol at + 60 mV” value in experiment [1] is “mTMC4-mediated currents were strongly inhibited by the NPPB”. In addition, the current reduction entry in experiment [2] was “hTMC4) also functions as a Cl^− channel with a similar voltage dependency and is inhibited by NPPB”. Take `O=C(O)[C@H](O)[C@@H](O)[C@H](O)[C@H](O)CO` [gluconate]: in experiment [3], the “whole-cell patch clamp, bath chloride fully replaced by gluconate” value is listed as “outward currents did not disappear even when the bath solution was completely substituted with Na-gluconate”.

With `CNCCC(Oc1ccc(C(F)(F)F)cc1)c1ccccc1` (centres unmarked) [Fluoxetine hydrochloride], the “Iblocker/Icontrol at + 60 mV” value in experiment [4] (100 μM compound) is “Fluoxetine hydrochloride and tannic acid also inhibited mTMC4-mediated currents”. `CC(C)(C)C1CCc2c(sc(NC(=O)c3ccco3)c2C(=O)O)C1` (centres unmarked) [CaCC(inh)-A01]: the “Iblocker/Icontrol at + 60 mV” value in experiment [4] is “mTMC4-mediated currents were inhibited by CaCC(inh)-A01”.
